Each compound was assayed against T1, recombinant human Estrogen Receptor alpha ligand binding domain, residues 307-554 (ER alpha-LBD (GST)) (Homo sapiens, UniProt P03372) (assay: ERα binding assay (LanthaScreen TR-FRET competition)). Details: TR-FRET competition with Fluormone ES2 tracer, 4 hours at room temperature; single experiment or average of two or more.
T1 construct: made in house
T1 sequence (P03372 307-554): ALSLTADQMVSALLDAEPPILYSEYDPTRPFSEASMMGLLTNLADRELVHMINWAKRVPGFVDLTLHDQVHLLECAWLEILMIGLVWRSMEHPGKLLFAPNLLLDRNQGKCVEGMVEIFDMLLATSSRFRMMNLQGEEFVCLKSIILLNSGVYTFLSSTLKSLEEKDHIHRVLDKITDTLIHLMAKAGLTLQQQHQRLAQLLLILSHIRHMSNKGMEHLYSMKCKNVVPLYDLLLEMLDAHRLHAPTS

SMILES	IC50 [nM]
Cc1ncsc1-c1ccc(CNC(=O)[C@@H]2C[C@@H](O)CN2C(=O)[C@@H](NC(=O)COCCOCCOCCOc2cc(F)c([C@@H]3c4[nH]c5ccccc5c4C[C@@H](C)N3C[C@H](C)CO)c(F)c2)C(C)(C)C)cc1 [Example 101, (2S,4R)-1-((S)-2-(tert-butyl)-14-(3,5-difluoro-4-((1R,3R)-2-((S)-3-hydroxy-2-methylpropyl)-3-methyl-2,3,4,9-tetrahydro-1H-pyrido[3,4-b]indol-1-yl)phenoxy)-4-oxo-6,9,12-trioxa-3-azatetradecanoyl)-4-hydroxy-N-(4-(4-methylthiazol-5-yl)benzyl)pyrrolidine-2-carboxamide]	3.3
Cc1ncsc1-c1ccc([C@H](C)NC(=O)[C@@H]2C[C@@H](O)CN2C(=O)[C@@H](NC(=O)COCCCCOCCCOc2cc(F)c([C@@H]3c4[nH]c5ccccc5c4C[C@@H](C)N3CC(C)(C)F)c(F)c2)C(C)(C)C)cc1 [Example 154, (2S,4R)-1-((S)-2-(2-(4-(3-(3,5-Difluoro-4-((1R,3R)-2-(2-fluoro-2-methylpropyl)-3-methyl-2,3,4,9-tetrahydro-1H-pyrido[3,4-b]indol-1-yl)phenoxy)propoxy)butoxy)acetamido)-3,3-dimethylbutanoyl)-4-hydroxy-N—((S)-1-(4-(4-methylthiazol-5-yl)phenyl)ethyl)pyrrolidine-2-carboxamide]	0.4
Cc1ncsc1-c1ccc(CNC(=O)C2CC(O)CN2C(=O)C(NC(=O)COCCOc2cc(F)c(C3c4[nH]c5ccccc5c4CC(C)N3CC(C)(C)F)c(F)c2)C(C)(C)C)cc1 [Example 40, (2S,4R)-1-((S)-2-(2-(2-(3,5-Difluoro-4-((1R,3R)-2-(2-fluoro-2-methylpropyl)-3-methyl-2,3,49-tetrahydro-1H-pyrido[3,4-b]indol-1-yl)phenoxy)ethoxy)acetamido)-3,3-dimethylbutanoyl)-4-hydroxy-N-(4-(4-methylthiazol-5-yl)benzyl)pyrrolidine-2-carboxamide]	1.3
Cc1ncsc1-c1ccc(CNC(=O)[C@@H]2C[C@@H](O)CN2C(=O)[C@@H](NC(=O)COCCOCCCCCOc2cc(F)c([C@@H]3c4[nH]c5ccccc5c4C[C@@H](C)N3CC(F)(F)F)c(F)c2)C(C)(C)C)cc1 [Example 139, (2S,4R)-1-((S)-2-(2-(2-((5-(3,5-Difluoro-4-((1R,3R)-3-methyl-2-(2,2,2-trifluoroethyl)-2,3,4,9-tetrahydro-1H-pyrido[3,4-b]indol-1-yl)phenoxy)pentyl)oxy)ethoxy)acetamido)-3,3-dimethylbutanoyl)-4-hydroxy-N-(4-(4-methylthiazol-5-yl)benzyl)pyrrolidine-2-carboxamide]	0.5
Cc1ncsc1-c1ccc(CNC(=O)[C@@H]2C[C@@H](O)CN2C(=O)[C@@H](NC(=O)COCCCCC(=O)NCCOc2cc(F)c([C@@H]3c4[nH]c5ccccc5c4C[C@@H](C)N3CC(C)(C)F)c(F)c2)C(C)(C)C)cc1 [Example 142, (2S,4R)-1-((S)-2-(2-((5-((2-(3,5-Difluoro-4-((1R,3R)-2-(2-fluoro-2-methylpropyl)-3-methyl-2,3,4,9-tetrahydro-1H-pyrido[3,4-b]indol-1-yl)phenoxy)ethyl)amino)-5-oxopentyl)oxy)acetamido)-3,3-dimethylbutanoyl)-4-hydroxy-N-(4-(4-methylthiazol-5-yl)benzyl)pyrrolidine-2-carboxamide]	1.1
Cc1ncsc1-c1ccc(CNC(=O)[C@@H]2C[C@@H](O)CN2C(=O)[C@@H](NC(=O)COCCC(C)(C)CCOc2cc(F)c([C@@H]3c4[nH]c5ccccc5c4C[C@@H](C)N3CC(C)(C)F)c(F)c2)C(C)(C)C)cc1 [Example 23, (2S,4R)-1-((S)-2-(2-((5-(3,5-Difluoro-4-((1R,3R)-2-(2-fluoro-2-methylpropyl)-3-methyl-2,3,4,9-tetrahydro-1H-pyrido[3,4-b]indol-1-yl)phenoxy)-3,3-dimethylpentyl)oxy)acetamido)-3,3-dimethylbutanoyl)-4-hydroxy-N-(4-(4-methylthiazol-5-yl)benzyl)pyrrolidine-2-carboxamide]	1.1
Cc1ncsc1-c1ccc(CNC(=O)[C@@H]2C[C@@H](O)CN2C(=O)[C@@H](NC(=O)COCCCCCN(C)CCOc2cc(F)c([C@@H]3c4[nH]c5ccccc5c4C[C@@H](C)N3CC(C)(C)F)c(F)c2)C(C)(C)C)cc1 [Example 49, (2S,4R)-1-((S)-2-(2-((5-((2-(3,5-difluoro-4-((1R,3R)-2-(2-fluoro-2-methylpropyl)-3-methyl-2,3,4,9-tetrahydro-1H-pyrido[3,4-b]indol-1-yl)phenoxy)ethyl)(methyl)amino)pentyl)oxy)acetamido)-3,3-dimethylbutanoyl)-4-hydroxy-N-(4-(4-methylthiazol-5-yl)benzyl)pyrrolidine-2-carboxamide]	1
Cc1ncsc1-c1ccc(CNC(=O)[C@@H]2C[C@@H](O)CN2C(=O)[C@@H](NC(=O)COCCCCCOCCOc2cc(F)c([C@@H]3c4[nH]c5ccccc5c4C[C@@H](C)N3CC(C)(C)F)c(F)c2)C(C)(C)C)cc1 [Example 9, (2S,4R)-1-((S)-2-(2-((5-(2-(3,5-Difluoro-4-((1R,3R)-2-(2-fluoro-2-methylpropyl)-3-methyl-2,3,4,9-tetrahydro-1H-pyrido[3,4-b]indol-1-yl)phenoxy)ethoxy)pentyl)oxy)acetamido)-3,3-dimethylbutanoyl)-4-hydroxy-N-(4-(4-methylthiazol-5-yl)benzyl)pyrrolidine-2-carboxamide]	0.8
Cc1ncsc1-c1ccc(CNC(=O)[C@@H]2C[C@@H](O)CN2C(=O)[C@@H](NC(=O)COCC/C=C/CCOc2cc(F)c([C@@H]3c4[nH]c5ccccc5c4C[C@@H](C)N3CC(C)(C)F)c(F)c2)C(C)(C)C)cc1 [Example 22, (2S,4R)-1-((S)-2-(2-(((E)-6-(3,5-Difluoro-4-((1R,3R)-2-(2-fluoro-2-methylpropyl)-3-methyl-2,3,4,9-tetrahydro-1H-pyrido[3,4-b]indol-1-yl)phenoxy)hex-3-en-1-yl)oxy)acetamido)-3,3-dimethylbutanoyl)-4-hydroxy-N-(4-(4-methylthiazol-5-yl)benzyl)pyrrolidine-2-carboxamide]	0.7
Cc1ncsc1-c1ccc(CNC(=O)[C@@H]2C[C@@H](O)CN2C(=O)[C@@H](NC(=O)COCCCCCCCOc2cc(F)c([C@@H]3c4[nH]c5ccccc5c4C[C@@H](C)N3CC(C)(C)F)c(F)c2)C(C)(C)C)cc1 [Example 7, (2S,4R)-1-((S)-2-(2-((7-(3,5-Difluoro-4-((1R,3R)-2-(2-fluoro-2-methylpropyl)-3-methyl-2,3,4,9-tetrahydro-1H-pyrido[3,4-b]indol-1-yl)phenoxy)heptyl)oxy)acetamido)-3,3-dimethylbutanoyl)-4-hydroxy-N-(4-(4-methylthiazol-5-yl)benzyl)pyrrolidine-2-carboxamide]	1.2
Cc1ncsc1-c1ccc(CNC(=O)[C@@H]2C[C@@H](O)CN2C(=O)[C@@H](NC(=O)COCCOCCC(F)(F)CCOc2cc(F)c([C@@H]3c4[nH]c5ccccc5c4C[C@@H](C)N3CC(C)(C)F)c(F)c2)C(C)(C)C)cc1 [Example 127, (2S,4R)-1-((S)-2-(2-(2-((5-(3,5-Difluoro-4-((R,3R)-2-(2-fluoro-2-methylpropyl)-3-methyl-2,3,4,9-tetrahydro-1H-pyrido[3,4-b]indol-1-yl)phenoxy)-3,3-difluoropentyl)oxy)ethoxy)acetamido)-3,3-dimethylbutanoyl)-4-hydroxy-N-(4-(4-methylthiazol-5-yl)benzyl)pyrrolidine-2-carboxamide]	0.5
Cc1ncsc1-c1ccc(CNC(=O)[C@@H]2C[C@@H](O)CN2C(=O)[C@@H](NC(=O)COCCCCCN(CCOc2cc(F)c([C@@H]3c4[nH]c5ccccc5c4C[C@@H](C)N3CC(C)(C)F)c(F)c2)C(=O)OCc2ccccc2)C(C)(C)C)cc1 [Example 45, Benzyl (2-(3,5-difluoro-4-((1R,3R)-2-(2-fluoro-2-methylpropyl)-3-methyl-2,3,4,9-tetrahydro-1H-pyrido[3,4-b]indol-1-yl)phenoxy)ethyl)(5-(2-(((S)-1-((2S,4R)-4-hydroxy-2-((4-(4-methylthiazol-5-yl)benzyl)carbamoyl)pyrrolidin-1-yl)-3,3-dimethyl-1-oxobutan-2-yl)amino)-2-oxoethoxy)pentyl)carbamate]	1.2
Cc1ncsc1-c1ccc(CNC(=O)[C@@H]2C[C@@H](O)CN2C(=O)[C@@H](NC(=O)C2(OCCCCCCOc3cc(F)c([C@@H]4c5[nH]c6ccccc6c5C[C@@H](C)N4CC(C)(C)F)c(F)c3)CC2)C(C)(C)C)cc1 [Example 118, (2S,4R)-1-((S)-2-(1-((6-(3,5-difluoro-4-((1R,3R)-2-(2-fluoro-2-methylpropyl)-3-methyl-2,3,4,9-tetrahydro-1H-pyrido[3,4-b]indol-1-yl)phenoxy)hexyl)oxy)cyclopropane-1-carboxamido)-3,3-dimethylbutanoyl)-4-hydroxy-N-(4-(4-methylthiazol-5-yl)benzyl)pyrrolidine-2-carboxamide]	0.7
Cc1ncsc1-c1ccc(CNC(=O)[C@@H]2C[C@@H](O)CN2C(=O)[C@@H](NC(=O)CCCCCCCCOc2cc(F)c([C@@H]3c4[nH]c5ccccc5c4C[C@@H](C)N3CC(C)(C)F)c(F)c2)C(C)(C)C)cc1 [Example 15, (2S,4R)-1-((S)-2-(9-(3,5-Difluoro-4-((1R,3R)-2-(2-fluoro-2-methylpropyl)-3-methyl-2,3,4,9-tetrahydro-1H-pyrido[3,4-b]indol-1-yl)phenoxy)nonanamido)-3,3-dimethylbutanoyl)-4-hydroxy-N-(4-(4-methylthiazol-5-yl)benzyl)pyrrolidine-2-carboxamide]	1.5
